{"source": "patent US7273964B1", "about": "“Non-human transgenic animals for the study of neurodegenerative syndromes” (Scuola Internazionale Superiore Di Studi Avanzati, priority 1999, dated 2007)", "key": {"anti-NGF mice [1]": {"system": "anti-NGF mice", "assay": "Number of ChAT-positive neurons in the basal forebrain (immunohistochemistry, stereology)", "assay_type": "in vivo, mouse", "experimental": "(§1) Peptide 18 treatment. Prior to the injections, phages carrying the peptide 18 or a peptide raised against NT-3 (negative control) were amplified by infecting 2.5 ml of an overnight colture of DH5alpha F′ bacteria with 5 ml of phage supernatant in 1 liter of 2TY. After an overnight incubation at 30° C., bacteria were removed by centrifugation at 6000 rpm for 20 min at 4° C. Phage particles were precipitated by adding 1 volume of PEG/NaCl (20% PEG6000, 2.5 M NaCl) to 5 volumes of the supernatant. After mixing, the solution was left stand overnight at 4° C. and spinned at […] for 30 min. The pellet was resuspended in 40 ml of […], kept at 65° C. and then spun for 5 min at 11000 rpm.\nOne volume of PEG/NaCl was mixed to 5 volumes of the phage containing supernatant and incubated for 2 hrs at 4° C. After spinning at 11000 rpm for 5 min., the pellet was resuspended in PBS, spun again to remove cell debris and filtered through a 0.22 μm sterile filter. The phage suspension was then titred by infecting 100 μl of an overnight colture of DH5α F′, mixed with LB top agar and plated on LB plates. Phages carrying the carrying the peptide 18 or a peptide binder of anti-NT-3 (10^9–10^12 pfu/μl) were injected in both lateral ventricles. Phages were injected at postnatal day 53 (P53) and mice were killed 1 week after the injection. For the injection, mice were anaesthetised with 2,2,2-Tribromoethanol (0.2 ml/10 g body weight of a 1.2% solution). One μl of phage suspension was injected using a 17 gauge needle connected to a 10 μl Hamilton by a polyethylene cannula, 1 mm lateral and 1 mm anterior to Bregma. After the injection, animals were treated with ampicillin (1 mg/kg) every day, in order to prevent any bacterial infection. Experiment were performed three times for a total number of animals equal to 14 for each group of treatment.\nL-thyroxine treatment. […]\nQuantitative stereology. The volume of basal forebrain and the number of BFCNs was evaluated in 9 anti-NGF transgenic mice and 8 transgenic controls by using a stereological approach (Ruberti, 2000)."}, "anti-NGF mice [2]": {"system": "anti-NGF mice", "assay": "AT8 (phosphorylated tau) immunohistochemistry in entorhinal cortex", "assay_type": "in vivo, mouse", "experimental": "as §1\nOne volume of PEG/NaCl was mixed to 5 volumes of the phage containing supernatant and incubated for 2 hrs at 4° C. After spinning at 11000 rpm for 5 min., the pellet was resuspended in PBS, spun again to remove cell debris and filtered through a 0.22 μm sterile filter. The phage suspension was then titred by infecting 100 μl of an overnight colture of DH5α F′, mixed with LB top agar and plated on LB plates. Phages carrying the carrying the peptide 18 or a peptide binder of anti-NT-3 (10^9–10^12 pfu/μl) were injected in both lateral ventricles. Phages were injected at postnatal day 53 (P53) and mice were killed 1 week after the injection. […]"}, "free NGF": {"system": "free NGF", "assay": "Determination of free NGF by ELISA", "assay_type": "in vivo, mouse", "experimental": "Determination of free NGF. The levels of free NGF (i.e. NGF not bound to the transgenic antibodies) in the different tissues was determined by an ELISA assay. This assay exploits the property of αD11 antibody to recognize NGF in a two-site ELISA format 16. Samples of blood serum or of tissue extracts (derived as in Molnar et al., 1998) were added to wells coated with mAb αD11 (coating concentration of […]). After incubation for 2 hours at r.t. and extensive washing with PBS-0.05% Tween 20, followed by PBS, free NGF, not engaged with transgenic αD11, was detected using an affinity-purified rabbit anti-NGF polyclonal antiserum."}, "[3]": {"system": "visual cortex slices of anti-NGF mice", "assay": "Long Term Potentiation (LTP) in visual cortex slices, electrophysiological recordings", "set-up": "species or system mouse", "details": "12 µg/animal/day for 4 weeks", "experimental": "Visual cortex slices preparation and electrophysiological recordings. Postsynaptic field potentials were recorded in […] in vitro slices containing visual cortex, following previously described methods (Kirkwood and Bear, 1994). Anti-NGF and transgenic control mice were deeply anesthetized with urethane and then decapitated. The brain was rapidly removed and visual cortex slices (400 μm) prepared and superfused in a submerged recording chamber at 33° C. with gassed artificial cerebrospinal fluid (aCSF) at a rate of 4 ml/min.\nThe amplitude of the maximum negative field potential in layer 2/3 was used as a measure of the evoked population excitatory current. LTP was induced by 3 trains of high frequency stimulation (HFS, 100 Hz, 1 s). Experiments were performed at different postnatal ages 6 months, when the functional maturation of the visual cortex is completed. Acetylcholine dependence of LTP was investigated by locally delivering through the recording pipette. […] The magnitude of both LTP was measured starting 30 min after the end of the corresponding conditioning protocol. Data for each experimental group were pooled and expressed as percentage change from control baseline, PCCB±S.E.M. Statistical comparison was done by applying a t-test and Mann-Whitney Rank Sum Test between baseline and LTP mean values."}, "[4]": {"system": "gastrocnemius muscle of anti-NGF mice", "assay": "Reversibility of the muscular dystrophy in anti-NGF mice by NGF local administration", "assay_type": "in vivo, mouse", "details": "45 day old anti-NGF mice, 7, 15 and 30 days after injection", "experimental": "All the experiments were carried out on 45 day old mice, when the serum level of the anti-NGF antibody is still not at the highest level (observed 60 days after the birth). The NGF was administered locally by different methods: (a) by intramuscular injection of NGF, (b) by intramuscular injection of a viral recombinant vector (adenovirus) encoding for NGF cDNA or (c) by the implant of NGF secreting fibroblasts. All the administration routes included the injection or implant in the gastrocnemius muscle, one of the skeletal muscles affected by muscular dystrophy. The injections and implants were carried out on the right leg, while the gastrocnemius muscle of the left leg was used as control. A) NGF was injected as pellet, consisting of diazocellulose mixed NGF in borate buffer at pH 8.0 for 72 hours and following neutralisation by glycine saturated solution (Hendry, 1982). This method allows the exact localisation and slow release of this neurotrophin. Different NGF concentrations were used, comprised in the range from […] and 2 mg for each animal. […]\nTo verify the effect of the NGF administration the animals were sacrificed 7, 15 and 30 days after the injection. The injected and contralateral muscles were collected and analysed by histological and immunohistochemical techniques to verify the attenuation of the dystrophy and the restoration of usual innervation."}, "anti-NGF mice [5]": {"system": "anti-NGF mice", "assay": "Restoration of the cholinergic phenotype in the basal forebrain of anti-NGF mice by NGF (minipump or NGF-secreting fibroblasts, lateral ventricle)", "assay_type": "in vivo, mouse", "details": "2 months-old anti-NGF mice; NGF into lateral ventricle", "experimental": "The restoration of the cholinergic phenotype in the basal forebrain was achieved by two different approaches. In a first set of experiments, NGF was delivered using slow releasing minipumps (Alzet, USA) A rubber capillary tube was inserted in the lateral ventricle and then connected by means of an osmotic minipump to a <> of the subcutaneous layer. This pump was filled by NGF (30–100 μg) diluted with Ringer-Locke physiological saline. Experiments were performed in 2 months-old transgenic mice and controls.\nIn another set of experiments, animals of the same age of previous ones were treated by an implant of fibroblasts genetically modified to secrete NGF. The fibroblasts were injected in the lateral ventricle at a 2×10^5 cells/μl concentration. The injection volume was 1.5 μl/animal. This second method allowed to verify, by ELISA, the constancy of NGF production over 4 weeks after the implantation."}, "αD11 antibody": {"system": "αD11 antibody", "assay": "Phage ELISA assay", "assay_type": "binding", "details": "phages selected against αD11", "experimental": "Phage ELISA assay. Ninety-six well plates were coated with 100 μl of rat anti-pill monoclonal antibody (57D1, gift by P. Delmastro) diluted in coating buffer (1 μg/ml 50 mM carbonate buffer pH 9.6) and incubated overnight at 4° C. Palts were washed in PBST and blocked in 5% milk/PBST for 1 h at 37° C. on a rocking platform. After 1 brief wash, a mixture of cleared phage supernatant (50 μl) and 50 μl of 5% milk/PBST was added and incubated for 1 h at 37° C. The plates were washed and 100 μl of αD11 antibody dilution (1 μg/ml in 5% milk/PBS) were added and left overnight at 4° C. After washing, an alkaline phosphatase conjugated anti-mouse antibody was added and left at 4° C. for 4 hrs. The reaction was developed by adding 200 μl of the substrate solution (10% dietanolamine, 5 mM MgCl2 pH 9.6) for 2 min followed by an incubation at 37° C. for 1 h in 100 μl of developing solution (1 mg/ml NTB in 10% dietanolamine, 5 mM MgCl2, pH 9.6).\nPositive phage clones were analyzed by the single strand DNA sequencing. The positive phage clones were sequenced and re-tested using dot blot experiments towards the αD11 antibody. At least twenty were analyzed."}, "[6]": {"details": "intraperitoneal, 10 μg daily from P45 to P62"}, "[7]": {"details": "intraperitoneal, daily from P45 to P62"}, "[8]": {"details": "phage injected intraventricularly"}}, "note": "“Also recorded” adds a separate entry of the source."}
{"compound": "N[C@@H](Cc1cc(I)c(Oc2cc(I)c(O)c(I)c2)c(I)c1)C(=O)O", "note": "[LT4, L-thyroxine, reference compound]", "values": [{"measurement": "number of ChAT-positive neurons in the basal forebrain, compared with transgenic control", "setting": "anti-NGF mice [1]; [6]", "result": "equal to that observed in transgenic control animals"}, {"measurement": "number of ChAT-positive neurons, increase over not-treated or vehicle-treated anti-NGF mice", "setting": "anti-NGF mice [1]; [6]", "result": 40, "unit": "%"}, {"measurement": "AT8 labeling in the somatic compartment of neurons of the entorhinal cortex", "setting": "anti-NGF mice [2]; [7]", "result": "disappearance of AT8 labeling"}, {"measurement": "free NGF in brain, blood serum and submandibular gland, compared with transgenic control", "setting": "free NGF; [7]", "result": "reached almost the levels detectable in transgenic control animals"}, {"measurement": "free NGF in brain, blood serum and submandibular gland, compared with vehicle", "setting": "free NGF; [7]", "result": "higher than that detected in animals treated with vehicle"}, {"measurement": "rescue of synaptic plasticity (LTP)", "setting": "[3]", "result": "only a mild rescue"}]}
{"compound": "NGF: Nerve Growth Factor, neurotrophin, given as pellet, adenoviral cDNA vector, minipump infusion or via NGF-secreting fibroblasts", "values": [{"measurement": "muscle fibre morphology and cholinergic and peptidergic innervation", "setting": "[4]", "result": "re-assumed an usual appearance"}, {"measurement": "ChAT expression in nuclei of the basal forebrain and behaviour (cholinergic phenotype)", "setting": "anti-NGF mice [5]", "result": "phenotype reversibility to be observed"}]}
{"compound": "RGSRHDL [peptide 18]", "values": [{"measurement": "binding activity of phage clone to αD11", "setting": "αD11 antibody", "result": "stronger binding activity"}, {"measurement": "number of ChAT positive neurons in the basal forebrain", "setting": "anti-NGF mice [1]; phage injected in both lateral ventricles at P53, killed 1 week later", "result": "restored"}, {"measurement": "AT8 labeling (hyperphosphorylated tau) in the somatic compartment of neurons of the entorhinal cortex", "setting": "anti-NGF mice [2]; phage injected intraventricularly at P53", "result": "not paralleled by the disappearance of AT8 labeling; also recorded: decreases the expression in the soma"}, {"measurement": "free NGF in blood serum and submandibular gland", "setting": "free NGF; [8]", "result": "equal to animals treated with the non related peptide binder of anti-NT-3"}, {"measurement": "free NGF in brain", "setting": "free NGF; [8]", "result": "increase only at the level basal forebrain"}]}
